Where two headings read alike, the source gives them in different places.
Assays:
L. guyanensis (LgyLRV1+) = experiment: Drug-inhibition test: growth of LgyLRV1+ parasites; assay type: cell-based, Leishmania guyanensis
Protocol: These compounds were examined for their ability to inhibit the growth of LgyLRV1^+ and virus levels by LRV1 capsid flow cytometry.
Most studies were performed using luciferase-expressing transfectants of L. guyanensis (MHOM/BR/78/M4147) described previously [LRV1^+ LgyM4147/SSU:IR2SAT-LUC(b)c3 and LRV^−LgyM4147/pX63HYG/SSU:IR2SAT-LUC(b)c4] (54); these lines are termed LgyLRV1^+ and LgyLRV1^−, respectively. Two strains of LRV1^+L. braziliensis were examined: LEM2780 (MHOM/BO/90/CS) and LEM3874 (MHOM/BO/99/IMT252 no. 3) (12). Parasites were grown in Schneider's media (Sigma Aldrich, St. Louis, Mo., USA) prepared according to the supplier's instructions with pH adjusted to 6.5 and supplemented with 0.76 mM hemin, 2 μg/mL biopterin, 50 U/mL penicillin, 50 μg/mL streptomycin, and 10% (vol/vol) heat-inactivated FBS. Cell concentrations were determined using a Coulter Counter ([…], Indianapolis, Ind., USA).
(§1) Parasites were inoculated at 2×10^5 cells/mL into Schneider's media lacking supplemental adenine.

[1] = system: LRV1 (LgyLRV1 capsid levels); experiment: microbe, parasite or virus in culture; settings: for Effect on LRV1 (capsid) levels, in words: screen at 100 μM or maximum concentration permitted by solubility
Excerpt: Because LRV1 (like most Totiviridae) is not shed from the cell (33, 34), we developed a flow cytometric assay to measure intracellular LRV1 capsid levels on a per cell basis. To detect LRV1 we used binding to a rabbit anti-LgyLRV1 capsid antiserum (35) followed by detection with Alexa Fluor488-conjugated goat anti-rabbit IgG.
as §1
For capsid flow cytometry, 10^7 cells were fixed at room temperature using 2% (wt/vol) paraformaldehyde (Thermo Fisher Scientific) in PBS for 2 minutes. They were then incubated in blocking buffer [10% (vol/vol) normal goat serum (Vector Laboratories, Burlingame, Calif., USA) and 0.2% TRITON X-100 in PBS] for 30 minutes at room temperature. Anti-LgyLRV1 capsid antibody (35) was added (1:20,000 dilution) and incubated at room temperature for 1 hour. After two washes with PBS, cells were resuspended in 200 μL PBS with Alexa Fluor488-labeled goat anti-rabbit IgG (Alexafluor, Invitrogen; 1:1,000; or Thermo Fisher Scientific; 1:2,000 dilution), and incubated 1 hour at room temperature. After two additional washes with PBS, cells were subjected to flow cytometry, gating for single cells using forward and side scatter and the data analyzed using […] software (BD Bioscience, San Jose, Calif., USA).

[2] = Leishmania guyanensis, 48 h, LgyLRV1+, tested at 100 μM, growth after 2 days, read-out: Percent control (density)
[3] = LgyLRV1+, tested at 100 μM, growth after 2 days
[4] = 48 h, read-out: Percent control (LRV1 capsid)
[5] = LgyLRV1+, tested at 100 μM, 2 days
[6] = Leishmania guyanensis, 48 h, read-out: Percent control (density)
[7] = Leishmania guyanensis, 48 h, LgyLRV1+, tested at 1 μM, growth after 2 days, read-out: Percent control (density)
[8] = LgyLRV1+, tested at 1 μM, growth after 2 days
[9] = LgyLRV1+, tested at 1 μM, 2 days
[10] = LgyLRV1+, tested at 50 μM, growth after 2 days

For [N-]=[N+]=N[C@]1(CO)O[C@@H](n2ccc(N)nc2=O)[C@H](O)[C@@H]1O [Compound R-1479, 4′-Azido cytidine], the activity at 100 µM (L. guyanensis (LgyLRV1+); [2]) was 73%, the “Density (cells/mL)” value (L. guyanensis (LgyLRV1+); [3]) was 1.23E+7 cells/mL and the activity at 100 µM [1, 4] was 43%. For the same molecule, the “LRV1 capsid (geometric mean FU)” value [1, 5] was 114 FU.

For NC(=O)c1nc(F)c[nH]c1=O [Compound T-705, Favipiravir], the activity at 100 µM (L. guyanensis (LgyLRV1+); [2]) was 67%, the “Density (cells/mL)” value (L. guyanensis (LgyLRV1+); [3]) was 1.13E+7 cells/mL and the activity at 100 µM [1, 4] was 60%. The “LRV1 capsid (geometric mean FU)” value [1, 5] was 161 FU.

O=c1[nH]cnc2c1ncn2[C@H]1CC[C@@H](CO)O1 [Didanosine] was tested, and the activity at 100 µM (L. guyanensis (LgyLRV1+); [6]) was 107%, the “Density (cells/mL)” value (L. guyanensis (LgyLRV1+); [3]) was 1.80E+7 cells/mL and the activity at 100 µM [1, 4] was 68%. For the same molecule, the “LRV1 capsid (geometric mean FU)” value [1, 5] was 182 FU.

With C=C1[C@H](CO)[C@@H](O)C[C@@H]1n1cnc2c(=O)[nH]c(N)nc21 [Entecavir] the activity at 100 µM (L. guyanensis (LgyLRV1+); [2]) was 105%, the “Density (cells/mL)” value (L. guyanensis (LgyLRV1+); [3]) was 1.77E+7 cells/mL and the activity at 100 µM [1, 4] was 45%. For the same molecule, the “LRV1 capsid (geometric mean FU)” value [1, 5] was 119 FU.

For O=C(O)P(=O)(O)O [Foscarnet, Phosphonoformic acid], the activity at 100 µM (L. guyanensis (LgyLRV1+); [2]) was 56%, the “Density (cells/mL)” value (L. guyanensis (LgyLRV1+); [3]) was 9.50E+6 cells/mL and the activity at 100 µM [1, 4] was 61%. For the same molecule, the “LRV1 capsid (geometric mean FU)” value [1, 5] was 162 FU and the “Effect on LRV1 (capsid) levels, in words” value ([1]; 2 days) was “not significantly affected”.

In the case of Nc1nc(O)c2ncn(COC(CO)CO)c2n1 [Ganciclovir], the activity at 40 µM (L. guyanensis (LgyLRV1+); Leishmania guyanensis, 48 h, LgyLRV1+, tested at 40 μM, growth after 2 days, read-out: Percent control (density)) is reported as 58%, the “Density (cells/mL)” value (L. guyanensis (LgyLRV1+); LgyLRV1+, tested at 40 μM, growth after 2 days) is reported as 9.78E+6 cells/mL and the activity at 40 µM [1, 4] is reported as 75%. For the same molecule, the “LRV1 capsid (geometric mean FU)” value ([1]; LgyLRV1+, tested at 40 μM, 2 days) was 198 FU.

With COc1c(C)c2c(c(O)c1C/C=C(\C)CCC(=O)O)C(=O)OC2 [Mycophenolic acid] the activity at 1 µM (L. guyanensis (LgyLRV1+); [7]) was 3%, the “Density (cells/mL)” value (L. guyanensis (LgyLRV1+); [8]) was 4.55E+5 cells/mL and the activity at 1 µM [1, 4] was 90%. For the same molecule, the “LRV1 capsid (geometric mean FU)” value [1, 9] was 238 FU.

For C#C[C@@]1(O)[C@H](O)[C@@H](CO)O[C@H]1n1ccc2c(N)ncnc21 [NITD008, 7-(2-Ethynyl-β-D-ribofuranosyl)-7H-pyrrolo[2,3-d]pyrimidine-4-amine], the activity at 1 µM (L. guyanensis (LgyLRV1+); [7]) was 61%, the “Density (cells/mL)” value (L. guyanensis (LgyLRV1+); [8]) was 1.02E+7 cells/mL and the activity at 1 µM [1, 4] was 37%. The “LRV1 capsid (geometric mean FU)” value [1, 9] was 98 FU and the “Effect on LRV1 (capsid) levels, in words” value ([1]; 2 days) was “little effect on LRV1”.

For CC(C)OC(=O)[C@H](C)N[P@](=O)(OC[C@H]1O[C@@H](n2ccc(=O)[nH]c2=O)[C@](C)(F)[C@@H]1O)Oc1ccccc1 [PSI-7977, 2-((5-(2,4-dioxo-3,4-dihydro-2H-pyrimidin-1-yl)-4-fluoro-3-hydroxy-4-methyltetrahydrofuranyl-2-methoxy)phenoxyphosphorylamino) propionic acid isopropyl ester], the activity at 100 µM (L. guyanensis (LgyLRV1+); [2]) was 74%, the “Density (cells/mL)” value (L. guyanensis (LgyLRV1+); [3]) was 1.25E+7 cells/mL and the activity at 100 µM [1, 4] was 61%. For the same molecule, the “LRV1 capsid (geometric mean FU)” value [1, 5] was 163 FU and the “Effect on LRV1 (capsid) levels, in words” value ([1]; 2 days) was “little effect on LRV1”.

For NC(=O)c1ncn([C@@H]2O[C@H](CO)[C@@H](O)[C@H]2O)n1 [Ribavirin], the activity at 100 µM (L. guyanensis (LgyLRV1+); [2]) was 13%, the “Density (cells/mL)” value (L. guyanensis (LgyLRV1+); [3]) was 2.21E+6 cells/mL and the activity at 100 µM [1, 4] was 61%. The “LRV1 capsid (geometric mean FU)” value [1, 5] was 162 FU.

In the case of Cc1cn([C@H]2C=C[C@@H](CO)O2)c(=O)[nH]c1=O [Stavudine], the activity at 100 µM (L. guyanensis (LgyLRV1+); [2]) is reported as 95%, the “Density (cells/mL)” value (L. guyanensis (LgyLRV1+); [3]) is reported as 1.60E+7 cells/mL and the activity at 100 µM [1, 4] is reported as 83%. The “LRV1 capsid (geometric mean FU)” value [1, 5] was 220 FU.

For [H]/N=C(/N)NS(=O)(=O)c1ccc(N)cc1 [Sulfaguanidine], the activity at 100 µM (L. guyanensis (LgyLRV1+); [2]) was 68%, the “Density (cells/mL)” value (L. guyanensis (LgyLRV1+); [3]) was 1.15E+7 cells/mL and the activity at 100 µM [1, 4] was 98%. The “LRV1 capsid (geometric mean FU)” value [1, 5] was 260 FU.

In the case of C[C@H](Cn1cnc2c(N)ncnc21)OCP(=O)(O)O.O [Tenofovir, Tenofovir monohydrate], the “Density (cells/mL)” value (L. guyanensis (LgyLRV1+); [3]) is reported as 8.90E+6 cells/mL, the “Percent control (density)” value (L. guyanensis (LgyLRV1+); [3]) is reported as 53 Percent control and the “LRV1 capsid (geometric mean FU)” value [1, 5] is reported as 206 FU. The “Percent control (LRV1 capsid)” value [1, 5] was 78 Percent control.

With Cc1cn([C@H]2C[C@H](N=[N+]=[N-])[C@@H](CO)O2)c(=O)[nH]c1=O [Zidovudine] the activity at 100 µM (L. guyanensis (LgyLRV1+); [6]) was 107%, the “Density (cells/mL)” value (L. guyanensis (LgyLRV1+); [3]) was 1.81E+7 cells/mL and the activity at 100 µM [1, 4] was 74%. For the same molecule, the “LRV1 capsid (geometric mean FU)” value [1, 5] was 196 FU.

In the case of CC(C)C[C@H](NC(=O)[C@H]1O[C@@H]1C(=O)O)C(=O)NCCCCN=C(N)N [e64, E-64], the “Density (cells/mL)” value (L. guyanensis (LgyLRV1+); [10]) is reported as 1.80E+07 cells/mL, the “Percent control (density)” value (L. guyanensis (LgyLRV1+); [10]) is reported as 107 Percent control and the “Effect on L. guyanensis growth, in words” value (L. guyanensis (LgyLRV1+); screen at 100 μM or maximum concentration permitted by solubility, 2 days) is reported as “no effects”. The “LRV1 capsid (geometric mean FU)” value [1] was 153 FU, the “Percent control (LRV1 capsid)” value ([1]; LgyLRV1+, tested at 50 μM, 2 days) was 58 Percent control and the “Effect on LRV1 (capsid) levels, in words” value ([1]; 2 days) was “only minimal effects”.

For CCOC(=O)[C@H]1O[C@@H]1C(=O)N[C@@H](CC(C)C)C(=O)NCCC(C)C [e64d, E64-d], the activity at 10 µM (L. guyanensis (LgyLRV1+); Leishmania guyanensis, 48 h, LgyLRV1+, tested at 10 μM, growth after 2 days, read-out: Percent control (density)) was 90%, the “Density (cells/mL)” value (L. guyanensis (LgyLRV1+); LgyLRV1+, tested at 10 μM, growth after 2 days) was 1.52E+07 cells/mL and the activity at 10 µM [1, 4] was 37%. The “LRV1 capsid (geometric mean FU)” value ([1]; LgyLRV1+, tested at 10 μM, 2 days) was 97 FU.

— patent US20190307783A1, “USE OF ANTIVIRALS TO INHIBIT PROTOZOAN VIRUSES” (priority 2016, published 2019)
